Measured values taken from PubChem BioAssay AID1350 (Sanford-Burnham Center for Chemical Genomics, 2008).
The source made the active and inactive calls.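 The calls were made as follows: active = wells where survival under tumor necrosis factor attack stays above 50% of untreated control at 25 µM; inactive = the rest.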

test system: CSM14.1 TNF/CHX-induced death, ATPlite luminescence, 24 h; assay: TNF extrinsic death rescue in CSM14.1 – cell-based, undifferentiated CSM14.1, ATP luminescence, selectivity assay for ER stress death inhibitor project, SAR follow-up (AID 1350); settings: at 25 µM; stronger effect = higher value

**Q.** O=C1CC(c2ccccc2)CC2=C1C(c1c(F)cccc1Cl)Nc1ccccc1N2 (stereo unspecified) was tested. Which survival did it give?
**A.** Its survival is 32% (inactive).

**Q.** CSc1ccc(C2Nc3ccccc3NC3=C2C(=O)CC(c2ccccc2)C3)cc1 (stereo unspecified) was tested. Which survival did it give?
**A.** The survival was 43% (inactive).

**Q.** CCCOc1ccc(C2Nc3ccccc3NC3=C2C(=O)CC(c2ccc(OC)c(OC)c2)C3)cc1 (stereo unspecified) was tested. Which survival did it give?
**A.** Its survival is 45% (inactive).

**Q.** For COc1ccc(C2CC(=O)C3=C(C2)Nc2ccccc2NC3c2cc(C)ccc2C)cc1 (stereo unspecified), which survival is on record?
**A.** The survival was 39% (inactive).

**Q.** CCOc1cc(C2Nc3ccccc3NC3=C2C(=O)CC(c2ccc(OC)cc2)C3)cc(Cl)c1O (stereo unspecified) was tested. Which survival did it give?
**A.** The survival was 33% (inactive).

**Q.** For COc1ccc(C2CC(=O)C3=C(C2)Nc2ccccc2NC3c2cccc(Br)c2)cc1OC (stereo unspecified), which survival is on record?
**A.** The survival was 38% (inactive).

**Q.** How did the survival turn out when COc1ccc(C2CC(=O)C3=C(C2)Nc2ccccc2NC3c2cccc(C(F)(F)F)c2)cc1OC (stereo unspecified) was run?
**A.** Its survival is 37% (inactive).

**Q.** With CCOc1cccc(C2Nc3ccccc3NC3=C2C(=O)CC(c2ccc(OC)cc2)C3)c1 (stereo unspecified) as the compound, how does the survival read?
**A.** Its survival is 40% (inactive).

**Q.** COc1ccc(C2CC(=O)C3=C(C2)Nc2ccccc2NC3c2cccc(Oc3ccccc3)c2)cc1OC (stereo unspecified) was tested. Which survival did it give?
**A.** The survival was 39% (inactive).

**Q.** Which survival does the source give for COc1ccc(C2CC(=O)C3=C(C2)Nc2ccccc2NC3c2ccccc2C(F)(F)F)cc1OC (stereo unspecified) here?
**A.** The survival was 37% (inactive).

**Q.** CC1(C)CC(=O)C2=C(C1)Nc1ccccc1NC2c1ccc(-c2ccccc2)cc1 (stereo unspecified) was tested. Which survival did it give?
**A.** The survival was 46% (inactive).
